Results as given in patent publication US10961196B2, “Compounds for use as an anti-bacterial or anti-fungal agent and as a zinc sensor” (UNIVERSITÄT KONSTANZ, priority 2016, dated 2021).
Values joined by “and” are separate entries in the source; they are usually repeats but may differ in a detail not shown here. Identical values can stand only once. Like-named read-outs stand apart in the source and are kept apart here.

Columns and labels:
[1] = test system: developing neurons (LUHMES d2-3); assay: Toxicological testing with developing neurons in the LUHMES d2-3 assay; format: cell-based; settings: 0-100 μM tested
Procedure: Example 14: Toxicological Testing with Developing Neurons in the LUHMES d2-3 Assay
Compounds 3, 5, and 10 were toxicologically tested with developing neurons in the LUHMES d2-3 assay at concentrations varying from 0 to 100 μM (cf. FIGS. 4 to 6). […] In the case of compound 5 (cf. FIG. 5), general cytotoxicity (orange line) and inhibition of neurite outgrowth each started above 40 μM (green line). For compound 10 (cf. FIG. 6), general cytotoxicity (orange line) started at 80 μM and inhibition of neurite outgrowth started at 40 μM (green line).

[2] = test system: human embryonic kidney cell line HEK-293; assay: Toxicological testing, viability by resazurin reduction after 24 h; format: cell-based; settings: HEK-293, 0-100 μM tested
Procedure: Example 13: Toxicological Testing with Human Embryonic Kidney Cell Line HEK-293
Compounds 3, 5, and 10 were toxicologically tested with human embryonic kidney cell line HEK-293 at concentrations varying from 0 to 100 μM (cf. FIGS. 1 to 3). The viability was measured by resazurin reduction after 24 h.

[3] = test system: E. coli K12; assay: Minimum inhibitory concentration (MIC), 96-well plates, serial dilutions in LB medium; format: cell-based; settings: Escherichia coli
Description: (§1) Example 12: Determination of the Minimum Inhibitory Concentration (MIC) with Non-Pathogenic E. coli and B. subtilis and/or Pathogenic Strains of S. aureus Including Three MRSA Strains (USA 300, Mu50 and DSM18827) as Well as the Pathogenic Fungus Candida albicans
(§2) Minimum inhibitory concentrations (MIC) for compounds 1 to 11 with non-pathogenic E. coli and B. subtilis and/or pathogenic strains of S. aureus including three MRSA strains (USA 300, Mu50 and DSM18827) as well as the pathogenic fungus Candida albicans were determined in 96-well plates with serial dilutions in LB medium.

[4] = test system: S. aureus DSM18827 (MRSA); assay: as above; format: cell-based; settings: Staphylococcus aureus, DSM 11827 / DSM 18827 / MRSA, read-out: Minimum inhibitory concentration (MIC)
Description: as §1, §2

[5] = test system: B. subtilis; assay: as above; format: cell-based; settings: Bacillus subtilis, read-out: Minimum inhibitory concentration (MIC)
Description: as §1, §2

[6] = test system: S. aureus Mu50 (MRSA); assay: as above; format: cell-based; settings: Staphylococcus aureus, read-out: Minimum inhibitory concentration (MIC)
Description: as §1, §2

[7] = test system: Candida albicans; assay: as above; format: cell-based; settings: read-out: Minimum inhibitory concentration (MIC)
Description: as §1, §2

[8] = test system: S. aureus NCTC 8325; assay: as above; format: cell-based; settings: Staphylococcus aureus
Description: as §1, §2

[9] = test system: S. aureus USA 300 (MRSA); assay: as above; format: cell-based; settings: Staphylococcus aureus, read-out: Minimum inhibitory concentration (MIC)
Description: as §1, §2
Example 21: Determination of the Minimum Inhibitory Concentration (MIC) for the Compounds Represented by the Formulas (14) and (16) with the Pathogenic USA 300 (MRSA) Strain of S. aureus
Minimum inhibitory concentrations (MIC) for the compounds represented by the Formulas (14) and (16) with the pathogenic MRSA strains of S. aureus USA 300 were determined in 96-well plates with serial dilutions in LB medium.

[10] = test system: S. aureus Mu50 (MRSA); settings: background section; cited from earlier work
[11] = test system: Moraxella catarrhalis; assay: Growth curves in comparison to an untreated and a DMSO treated control; format: cell-based
Procedure: (§3) Example 22: Determination of the Inhibitory Effect of 1-S-PQS (5) Against Moraxella catarrhalis and Neisseria meningitidis by Measuring Growth Curves in Comparison to an Untreated and a DMSO Treated Control
(§4) The inhibitory effect of 1-S-PQS (5) against Moraxella catarrhalis and Neisseria meningitidis was determined by measuring growth curves in comparison to an untreated and a DMSO treated control (cf. FIGS. 11 to 14). […] M. catarrhalis is an important human pathogen responsible for otitis media in children and chronic obstructive pulmonary disease (COPD) in adults.
Example 23: Determination of the Inhibitory Effect of the Compound Represented by the Formula (14) Against Moraxella catarrhalis by Measuring Growth Curves in Comparison to an Untreated and a DMSO Treated Control
The inhibitory effect of the compound represented by the Formula (14) against Moraxella catarrhalis was determined by measuring growth curves in comparison to an untreated and a DMSO treated control (cf. FIGS. 15 and 16).

[12] = test system: Neisseria gonorrhoeae; assay: as above; format: cell-based
Procedure: Example 24: Determination of the Inhibitory Effect of 1-S-PQS (5) and the Compound Represented by the Formula (14) Against Neisseria gonorrhoeae by Measuring Growth Curves in Comparison to an Untreated and a DMSO Treated Control
The inhibitory effect of 1-S-PQS (5) and the compound represented by the Formula (14) against Neisseria gonorrhoeae was determined by measuring growth curves in comparison to an untreated and a DMSO treated control (cf. FIGS. 17 to 19). […] The compound represented by the Formula (14) was effective against N. gonorrhoeae around 25-50 μM (cf. FIG. 19).

[13] = test system: Neisseria meningitidis; assay: as above; format: cell-based
Procedure: as §3, §4

[14] = NCTC8325, read-out: Minimum inhibitory concentration (MIC)
[15] = 5 μM was the lowest concentration tested
[16] = S. aureus USA 300 (MRSA), LB medium

For `CCCCCCCc1c/c(=N/O)c2ccccc2[nH]1` [Compound 3, 2-heptylquinolin-4(1H)-one oxime], which “Concentration at which general cytotoxicity starts” value [1] is on record?
Its value is “above 10 μM”.

And the “Concentration at which inhibition of neurite outgrowth starts” value [1]?
The value was “above 2.5 μM”.

What about the “Concentration at which cell toxicity starts” value [2] of the same compound?
Its value is 40 µM.

And the MIC [3]?
Its MIC is 300 µM and 78 µg/mL.

And the MIC [4]?
Its MIC is 60 µM and 15.5 µg/mL.

What about the MIC [5] of the same compound?
The MIC was 50 µM and 12.9 µg/mL.

What about the MIC ([6]; MRSA) of the same compound?
The MIC was 60 µM and 15.5 µg/mL.

And the MIC [7]?
Its MIC is 100 µM and 25.8 µg/mL.

And the MIC [8, 14]?
The MIC was 60 µM and 15.5 µg/mL.

And the MIC [9]?
The MIC was 60 µM and 15.5 µg/mL.

With `CCCCCCCc1[nH]c2ccccc2c(=O)c1O` [Compound 4, 2-heptyl-3-hydroxy-4-quinolone, reference compound] as the compound, how does the MIC [3] read?
Its MIC is > 1000 µM and > 259 µg/mL.

What about the MIC [5] of the same compound?
Its MIC is > 1000 µM and > 259 µg/mL.

And the MIC [8, 14]?
Its MIC is > 1000 µM and > 259 µg/mL.

With `CC[C@H]1OC(=O)[C@H](C)[C@@H](O[C@H]2C[C@@](C)(OC)[C@@H](O)[C@H](C)O2)[C@H](C)[C@@H](O[C@@H]2O[C@H](C)C[C@H](N(C)C)[C@H]2O)[C@](C)(O)C[C@@H](C)C(=O)[C@H](C)[C@@H](O)[C@]1(C)O` [erythromycin] as the compound, how does the “Concentration to inhibit growth (commercial antibiotics)” value [10] read?
Its value is over 1 mM.

For `O=c1c(O)c(CCc2ccccc2)sc2ccccc12` [Formula (14)], which “Concentration at which growth was completely inhibited” value [11, 15] is on record?
The value was at most 5 µM.

And the MIC [9, 16]?
Its MIC is 40 µM and 11.3 µg/mL.

What about the “Concentration at which the compound was effective” value [12] of the same compound?
The value was 25 to 50 µM.

Which MIC [9, 16] does the source give for `CCCCCCCCCCc1sc2ccccc2c(=O)c1O` [Formula (16)] here?
Its MIC is > 100 µM and > 32 µg/mL.

Which MIC [4] does the source give for `Cc1sc2ccccc2c(=O)c1O` [Compound 9, 3-hydroxy-2-methyl-thiochromen-4-one] here?
The MIC was > 1000 µM and > 192 µg/mL.

What about the MIC ([6]; MRSA) of the same compound?
The MIC was > 1000 µM and > 192 µg/mL.

And the MIC [8, 14]?
Its MIC is > 1000 µM and > 192 µg/mL.

And the MIC [9]?
The MIC was > 1000 µM and > 192 µg/mL.

With `CCCCCCCc1sc2ccccc2c(=O)c1O` [Compound 5, 2-heptyl-3-hydroxy-4H-thiochromen-4-one] as the compound, how does the “Concentration at which growth was completely inhibited” value [13] read?
The value was 10 µM.

And the “Growth relative to DMSO control” value ([13]; 5 μM)?
The value was 0.4.

What about the “Growth relative to DMSO control” value ([13]; 10 μM) of the same compound?
Its value is 0.0.

What about the “Growth relative to DMSO control” value ([13]; 25 μM) of the same compound?
The value was 0.0.

What about the “Growth relative to DMSO control” value ([13]; 50 μM) of the same compound?
Its value is 0.0.

What about the “Concentration at which general cytotoxicity starts” value [1] of the same compound?
The value was “above 40 μM”.

What about the “Concentration at which inhibition of neurite outgrowth starts” value [1] of the same compound?
Its value is “above 40 μM”.

What about the MIC ([4]; S. aureus DSM18827 (also printed DSM11827), MRSA, LB medium) of the same compound?
The MIC was 35 µM and 9.67 µg/mL.

And the MIC ([5]; B. subtilis, LB medium)?
The MIC was 25 µM and 6.91 µg/mL.

What about the MIC ([6]; S. aureus Mu50 (MRSA), LB medium) of the same compound?
Its MIC is 25 µM and 6.91 µg/mL.

What about the MIC ([8]; NCTC8325, S. aureus NCTC 8325, LB medium, read-out: Minimum inhibitory concentration (MIC)) of the same compound?
The MIC was 30 µM and 8.29 µg/mL.

What about the “Growth relative to DMSO control” value ([11]; 5 μM) of the same compound?
Its value is 0.1.

And the “Concentration at which growth was completely inhibited” value [11, 15]?
The value was at most 5 µM.

And the “Growth relative to DMSO control” value ([11]; 10 μM)?
The value was 0.0.

And the “Growth relative to DMSO control” value ([11]; 25 μM)?
Its value is 0.0.

And the “Growth relative to DMSO control” value ([11]; 50 μM)?
The value was 0.0.

What about the “Concentration at which growth was completely inhibited” value ([11]; lowest concentration tested (5 μM) expressed in μg/mL) of the same compound?
The value was at most 1.4 µg/mL.

What about the MIC [9, 16] of the same compound?
The MIC was 30 µM and 8.29 µg/mL.

And the “Concentration at which growth was completely inhibited” value [12]?
Its value is 25 µM.

Which MIC [4] does the source give for `CCCCCCCc1[nH]c2ccccc2/c(=N\O)c1O` [Compound 8, 2-heptyl-3-hydroxyquinolin-4(1H)-one oxime] here?
The MIC was 150 µM and 41.1 µg/mL.

And the MIC ([6]; MRSA)?
The MIC was 100 µM and 27.4 µg/mL.

What about the MIC [8, 14] of the same compound?
Its MIC is 200 µM and 54.9 µg/mL.

What about the MIC [9] of the same compound?
Its MIC is 100 µM and 27.4 µg/mL.
